Measurements published in the NIST ThermoML archive (doi:10.1016/j.tca.2012.01.013).

How the values were obtained:
[1] = refractive index (Na D-line) (dimensionless); xn = mol fraction of the nth substance listed; details: 101 kPa, Liquid, Standard Abbe refractometry
[2] = xn = mol fraction of the nth substance listed; details: 101 kPa, Liquid, Vibrating tube method

COC(=O)CCCCC(=O)OC [dimethyl 1,6-hexanedioate] + CCC(C)=O
Details | mass density, [2] [kg/m3] | refractive index, [1]
288.15 K, x1 = 0.1002 | 855.132 | 1.3909
288.15 K, x1 = 0.2002 | 893.327 | 1.39827
288.15 K, x1 = 0.3002 | 926.063 | 1.40453
288.15 K, x1 = 0.4004 | 954.409 | 1.40995
288.15 K, x1 = 0.5001 | 979.016 | 1.41452
288.15 K, x1 = 0.5999 | 1000.72 | 1.41853
288.15 K, x1 = 0.6998 | 1020.03 | 1.42204
288.15 K, x1 = 0.7994 | 1037.28 | 1.42515
288.15 K, x1 = 0.8997 | 1052.86 | 1.42797
288.15 K, x1 = 1 | 1066.79 | 1.4305
293.15 K, x1 = 0.1002 | 849.982 | 1.38847
293.15 K, x1 = 0.2002 | 888.227 | 1.39586
293.15 K, x1 = 0.3002 | 921.006 | 1.40221
293.15 K, x1 = 0.4004 | 949.39 | 1.40768
293.15 K, x1 = 0.5001 | 974.03 | 1.41229
293.15 K, x1 = 0.5999 | 995.763 | 1.41634
293.15 K, x1 = 0.6998 | 1015.1 | 1.41989
293.15 K, x1 = 0.7994 | 1032.37 | 1.42303
293.15 K, x1 = 0.8997 | 1047.98 | 1.42587
293.15 K, x1 = 1 | 1061.93 | 1.42842
298.15 K, x1 = 0.1002 | 844.812 | 1.38601
298.15 K, x1 = 0.2002 | 883.111 | 1.39346
298.15 K, x1 = 0.3002 | 915.937 | 1.39988
298.15 K, x1 = 0.4004 | 944.361 | 1.4054
298.15 K, x1 = 0.5001 | 969.035 | 1.41005
298.15 K, x1 = 0.5999 | 990.798 | 1.41416
298.15 K, x1 = 0.6998 | 1010.17 | 1.41774
298.15 K, x1 = 0.7994 | 1027.45 | 1.42091
298.15 K, x1 = 0.8997 | 1043.08 | 1.42378
298.15 K, x1 = 1 | 1057.06 | 1.42636
303.15 K, x1 = 0.1002 | 839.62 | 1.38348
303.15 K, x1 = 0.2002 | 877.976 | 1.39104
303.15 K, x1 = 0.3002 | 910.852 | 1.39751
303.15 K, x1 = 0.4004 | 939.32 | 1.4031
303.15 K, x1 = 0.5001 | 964.032 | 1.4078
303.15 K, x1 = 0.5999 | 985.828 | 1.41196
303.15 K, x1 = 0.6998 | 1005.23 | 1.41557
303.15 K, x1 = 0.7994 | 1022.54 | 1.41878
303.15 K, x1 = 0.8997 | 1038.19 | 1.42168
303.15 K, x1 = 1 | 1052.18 | 1.42429
308.15 K, x1 = 0.1002 | 834.401 | 1.38097
308.15 K, x1 = 0.2002 | 872.82 | 1.38859
308.15 K, x1 = 0.3002 | 905.75 | 1.39515
308.15 K, x1 = 0.4004 | 934.263 | 1.40079
308.15 K, x1 = 0.5001 | 959.015 | 1.40555
308.15 K, x1 = 0.5999 | 980.845 | 1.40974
308.15 K, x1 = 0.6998 | 1000.27 | 1.41341
308.15 K, x1 = 0.7994 | 1017.61 | 1.41667
308.15 K, x1 = 0.8997 | 1033.29 | 1.41961
308.15 K, x1 = 1 | 1047.31 | 1.42222
313.15 K, x1 = 0.1002 | 829.151 | 1.37832
313.15 K, x1 = 0.2002 | 867.64 | 1.38611
313.15 K, x1 = 0.3002 | 900.629 | 1.39277
313.15 K, x1 = 0.4004 | 929.193 | 1.39848
313.15 K, x1 = 0.5001 | 953.987 | 1.4033
313.15 K, x1 = 0.5999 | 975.853 | 1.40756
313.15 K, x1 = 0.6998 | 995.312 | 1.41126
313.15 K, x1 = 0.7994 | 1012.68 | 1.41455
313.15 K, x1 = 0.8997 | 1028.38 | 1.41751
313.15 K, x1 = 1 | 1042.43 | 1.42017
318.15 K, x1 = 0.1002 | 823.875 | 1.37568
318.15 K, x1 = 0.2002 | 862.438 | 1.38355
318.15 K, x1 = 0.3002 | 895.489 | 1.39031
318.15 K, x1 = 0.4004 | 924.104 | 1.39611
318.15 K, x1 = 0.5001 | 948.941 | 1.401
318.15 K, x1 = 0.5999 | 970.845 | 1.40532
318.15 K, x1 = 0.6998 | 990.336 | 1.40909
318.15 K, x1 = 0.7994 | 1007.74 | 1.41243
318.15 K, x1 = 0.8997 | 1023.47 | 1.41544
318.15 K, x1 = 1 | 1037.54 | 1.41819
323.15 K, x1 = 0.1002 | 818.564 | 1.37305
323.15 K, x1 = 0.2002 | 857.21 | 1.38103
323.15 K, x1 = 0.3002 | 890.33 | 1.38784
323.15 K, x1 = 0.4004 | 919.003 | 1.39374
323.15 K, x1 = 0.5001 | 943.887 | 1.39869
323.15 K, x1 = 0.5999 | 965.832 | 1.40307
323.15 K, x1 = 0.6998 | 985.36 | 1.40691
323.15 K, x1 = 0.7994 | 1002.79 | 1.4103
323.15 K, x1 = 0.8997 | 1018.55 | 1.41336
323.15 K, x1 = 1 | 1032.64 | 1.41614
